Activity calls are given as the source filed them.
Assays:
Cysteine protease ATG4B = target: T1, Cysteine protease ATG4B (Homo sapiens, UniProt Q9Y4P1); assay type: functional;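 further: Fluorescence-based dose-response confirmation assay measuring inhibition of ATG4B activity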
T1 sequence (Q9Y4P1 whole entry): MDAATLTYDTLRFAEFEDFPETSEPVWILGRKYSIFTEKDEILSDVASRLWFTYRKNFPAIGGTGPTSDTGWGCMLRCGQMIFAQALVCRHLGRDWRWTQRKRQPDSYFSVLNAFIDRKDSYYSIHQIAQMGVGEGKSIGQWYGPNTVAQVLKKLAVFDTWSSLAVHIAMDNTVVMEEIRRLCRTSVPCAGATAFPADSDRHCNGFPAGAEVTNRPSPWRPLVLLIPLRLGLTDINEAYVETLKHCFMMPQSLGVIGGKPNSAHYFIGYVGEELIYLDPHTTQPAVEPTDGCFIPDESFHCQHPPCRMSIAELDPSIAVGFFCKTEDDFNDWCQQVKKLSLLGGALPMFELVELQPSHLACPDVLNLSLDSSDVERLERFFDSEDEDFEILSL

Streptococcus = assay: GAS UMAA2166 growth inhibition – luminescence, BacTiterGlo, counter-screen for streptokinase expression inhibitor project, dose response (AID 1915); assay type: functional, organism-based;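 further: potency for reduction of bacterial viability or growth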
[1] = target: DNA (cytosine-5)-methyltransferase 1 (Homo sapiens, UniProt P26358); assay: inhibition of DNA methylation by DNMT1 – biochemical, fluorescent molecular beacon, confirmation (AID 602386); assay type: functional
[2] = system: Streptococcus sp. 'group A'; assay: Streptococcus pyogenes SK(-)GAS viability under kanamycin – luminescence, BacTiterGlo, confirmation, counter-screen for streptokinase expression inhibitor project, dose response (AID 1900); assay type: functional, organism-based
Bcl-2-like protein 10 = target: T2, Bcl-2-like protein 10 (Homo sapiens, UniProt Q9HD36); assay: Bcl-B/TR3 peptide binding disruption – biochemical, fluorescence polarization, FITC-TR3 peptide, selectivity assay for Bfl-1 inhibitor project, primary screen (AID 748);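 further: fluorescence polarization from a fluorescein-labelled TR3 peptide binding purified Bcl-B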
T2 sequence (Q9HD36 whole entry): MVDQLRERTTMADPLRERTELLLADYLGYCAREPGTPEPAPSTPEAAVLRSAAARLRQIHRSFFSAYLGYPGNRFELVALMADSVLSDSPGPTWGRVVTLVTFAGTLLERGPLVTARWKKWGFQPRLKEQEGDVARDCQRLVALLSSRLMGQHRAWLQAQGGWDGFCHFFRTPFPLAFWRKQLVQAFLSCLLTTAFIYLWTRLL

Genome polyprotein = Genome polyprotein (Hepatitis C virus, UniProt Q2Q167); assay: disruption of hepatitis C core self-association – biochemical, TR-FRET, dose response (AID 2159); design: species or system Hepacivirus hominis;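 further: blocks dimerization of HCV core protein measured by TR-FRET between tagged core106 pairs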
Beta-galactosidase = Beta-galactosidase (Escherichia coli, UniProt Q8VNN2); assay: detection-enzyme interference by beta-gal modulators – biochemical, E. coli enzyme, set 3, artefact control for CCR6 antagonist project, dose response (AID 504712); assay type: functional
Phospholipase A2 = Phospholipase A2 (Homo sapiens, UniProt P04054); assay type: functional;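 further: confirmatory dose-response counterscreen on phospholipase A2, testing hits that came from an ultra-high-throughput screen for ATG4B inhibitors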
[3] = target: Induced myeloid leukemia cell differentiation protein Mcl-1 (Homo sapiens, UniProt Q07820); assay type: functional
[4] = HepG2 hepatoma cell viability loss – plate reader, dry powder, cytotoxicity control, dose response (AID 651947); assay type: functional, cell-based
[5] = inhibitors of non-replicating M. tuberculosis, dose response, luciferase, dry powder (AID 651620); assay type: functional; settings: Mycobacterium tuberculosis
[6] = inhibitors of non-replicating M. tuberculosis, dose response, luciferase, dry powder (AID 651619); assay type: functional; settings: Mycobacterium tuberculosis
[7] = HeLa cell viability loss – plate reader, dry powder, cytotoxicity control, dose response (AID 651946); assay type: functional, cell-based
[8] = Dd2 parasite growth inhibition in erythrocytes – SYBR Green, dry powder samples, set 9, dose response (AID 1159568); assay type: functional, cell-based
[9] = loss of viability in HepG2 cells – cell-based, CellTiter-Glo, cherry-picked, cytotoxicity control for Shn3 inhibitor project, dose response (AID 624134); assay type: functional
[10] = non-specific 3'UTR reporter inhibition in Clone20-Shn3RL – cell-based, Renilla luciferase, cherry-picked, counter-screen for Shn3 inhibitor project, dose response (AID 624133); assay type: functional
[11] = EF1alpha-driven Renilla reporter with control 3'UTR suppression – Clone20-Shn3RL cells, dual-Glo, cherry-pick, set 2, counter-screen for Shn3 3'UTR targeting project, dose response (AID 720724); assay type: functional, cell-based; settings: Dual-Go Shn3RL
[12] = Shn3 3'UTR reporter signal decrease – cell-based, Clone20 osteoblasts, firefly luciferase, cherry-pick, set 2, Schnurri-3 inhibitor project, dose response (AID 720490); assay type: functional;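 further: actives lower the luminescence signal as inhibitors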
[13] = reduction of Shn3 3'UTR-driven luciferase in osteoblasts – cell-based, Clone20 osteoblasts, firefly luciferase, cherry-picked, dose response (AID 624132); assay type: functional;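 further: firefly luciferase luminescence from reporter carrying the Shn3 3'UTR in osteoblasts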
[14] = HIV-1 Vif–A3G interaction blockers – biochemical, TR-FRET, GST-Vif 1-94, biotin-A3G peptide, dose response retest, primary screen (AID 1117319); assay type: functional;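 further: TR-FRET signal of purified GST-Vif binding a biotinylated A3G peptide; inhibitors lower the FRET signal by blocking Vif and A3G binding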
[15] = general cell-killing toxicity readout – plate reader, dry powder samples, cytotoxicity control for PAX8 inhibitor project, dose response (AID 743021); assay type: functional, cell-based
[16] = toxicity toward immortalized ovarian surface epithelium – cell-based, plate reader, dry powder samples, cytotoxicity control for PAX8 inhibitor project, dose response (AID 743045); assay type: functional
[17] = OVCAR-3 cell viability loss – plate reader, dry powder samples, PAX8 inhibitor project, dose response (AID 743044); assay type: functional, cell-based
[18] = COV362 cell viability loss – plate reader, dry powder, SA12, cytotoxicity control for PAX8 inhibitor project, dose response (AID 743144); assay type: functional, cell-based
Paired box protein Pax-8 = Paired box protein Pax-8 (Homo sapiens, UniProt Q06710); assay: PAX8 transcriptional activity inhibition in RMG-I – RMG-I cells, luciferase, cherry-pick, dose response (AID 687027); assay type: functional, cell-based;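 further: luciferase reporter driven by Pax8 target thyroperoxidase promoter measured by SteadyGlo luminescence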
[19] = inhibitors acting on PAX2 in cells – cell-based, plate reader, dry powder samples, selectivity assay for PAX8 inhibitor project, dose response (AID 743048); assay type: functional;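 further: HEK293 cells carrying a WT1 promoter luciferase reporter driven by expressed Pax2; potency is for inhibition of Pax2 driven reporter signal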
[20] = IGROV1 cell killing – plate reader, dry powder samples, PAX8 inhibitor project, dose response (AID 743043); assay type: functional, cell-based; settings: IGROV-1
[21] = COV434 cell viability loss – plate reader, dry powder, SA7, cytotoxicity control for PAX8 inhibitor project, dose response (AID 743145); assay type: functional, cell-based
[22] = PAX5 cellular inhibition readout – cell-based, plate reader, dry powder samples, selectivity assay for PAX8 inhibitor project, dose response (AID 743047); assay type: functional;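 further: HEK293 cells carrying a Pax5 driven CD19 promoter luciferase reporter; potency of inhibitors that lower reporter luminescence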
[23] = OVCAR4 cell viability loss – plate reader, dry powder, SA11, cytotoxicity control for PAX8 inhibitor project, dose response (AID 743150); assay type: functional, cell-based; settings: OVCAR-4
[24] = OV-90 cell viability loss – plate reader, dry powder, SA8, PAX8 inhibitor project, dose response (AID 743149); assay type: functional, cell-based
[25] = Orthopox viral replication plaque formation Measured in Cell-Based and Microorganism Combination System Using Imaging - 2142-05_Inhibitor_Dose_DryPowder_Activity.; assay type: functional
[26] = inhibitors of orthopox intermediate gene expression, dose response, cell-based, single fluorophore reporter, dry powder (AID 1117271); assay type: functional
[27] = lung carcinoma cell viability loss – CellTiter-Glo luminescence, dry powder, set 17, dose response (AID 1117284); assay type: functional, cell-based; settings: A549
[28] = Single fluorophore orthopox expression reporter, late gene expression Measured in Cell-Based and Microorganism Combination System Using Plate Reader - 2142-08_Inhibitor_Dose_DryPowder_Activity.; assay type: functional
[29] = Late stage results for the probe development effort to identify inhibitors of Plasmodium falciparum gametocytes: Luminescence-based cell-based high throughput dose response assay to identify inhibitors of viability of late stage Plasmodium falciparum gametocytes.; assay type: functional

Chain of Beta-galactosidase (Q8VNN2 whole entry): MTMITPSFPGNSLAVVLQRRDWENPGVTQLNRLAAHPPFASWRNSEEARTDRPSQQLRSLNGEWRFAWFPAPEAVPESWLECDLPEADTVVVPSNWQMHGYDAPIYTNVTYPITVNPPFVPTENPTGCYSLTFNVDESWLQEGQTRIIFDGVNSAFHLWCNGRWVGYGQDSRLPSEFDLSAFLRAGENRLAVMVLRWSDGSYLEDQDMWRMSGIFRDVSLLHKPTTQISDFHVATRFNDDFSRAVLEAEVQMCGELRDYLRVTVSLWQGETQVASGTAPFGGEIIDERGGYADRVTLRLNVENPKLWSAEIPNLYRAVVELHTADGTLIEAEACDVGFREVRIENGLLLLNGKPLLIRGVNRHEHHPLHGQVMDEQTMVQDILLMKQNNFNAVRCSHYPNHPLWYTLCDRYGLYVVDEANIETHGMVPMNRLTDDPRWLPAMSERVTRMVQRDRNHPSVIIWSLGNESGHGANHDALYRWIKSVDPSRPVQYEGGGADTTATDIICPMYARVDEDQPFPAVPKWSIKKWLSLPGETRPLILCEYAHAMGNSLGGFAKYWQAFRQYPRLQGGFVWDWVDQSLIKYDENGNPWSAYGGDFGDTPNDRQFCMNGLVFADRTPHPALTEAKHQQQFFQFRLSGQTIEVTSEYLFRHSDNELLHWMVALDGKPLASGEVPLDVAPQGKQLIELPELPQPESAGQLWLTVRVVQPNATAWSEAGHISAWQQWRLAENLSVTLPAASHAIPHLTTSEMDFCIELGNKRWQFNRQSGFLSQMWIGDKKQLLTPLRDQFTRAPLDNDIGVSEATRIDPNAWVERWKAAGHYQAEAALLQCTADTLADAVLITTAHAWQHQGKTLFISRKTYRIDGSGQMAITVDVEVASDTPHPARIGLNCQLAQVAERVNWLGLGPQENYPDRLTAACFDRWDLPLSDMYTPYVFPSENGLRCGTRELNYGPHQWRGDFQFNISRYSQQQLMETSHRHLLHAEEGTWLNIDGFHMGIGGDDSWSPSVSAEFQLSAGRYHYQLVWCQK
Chain of DNA (cytosine-5)-methyltransferase 1 (P26358 whole entry): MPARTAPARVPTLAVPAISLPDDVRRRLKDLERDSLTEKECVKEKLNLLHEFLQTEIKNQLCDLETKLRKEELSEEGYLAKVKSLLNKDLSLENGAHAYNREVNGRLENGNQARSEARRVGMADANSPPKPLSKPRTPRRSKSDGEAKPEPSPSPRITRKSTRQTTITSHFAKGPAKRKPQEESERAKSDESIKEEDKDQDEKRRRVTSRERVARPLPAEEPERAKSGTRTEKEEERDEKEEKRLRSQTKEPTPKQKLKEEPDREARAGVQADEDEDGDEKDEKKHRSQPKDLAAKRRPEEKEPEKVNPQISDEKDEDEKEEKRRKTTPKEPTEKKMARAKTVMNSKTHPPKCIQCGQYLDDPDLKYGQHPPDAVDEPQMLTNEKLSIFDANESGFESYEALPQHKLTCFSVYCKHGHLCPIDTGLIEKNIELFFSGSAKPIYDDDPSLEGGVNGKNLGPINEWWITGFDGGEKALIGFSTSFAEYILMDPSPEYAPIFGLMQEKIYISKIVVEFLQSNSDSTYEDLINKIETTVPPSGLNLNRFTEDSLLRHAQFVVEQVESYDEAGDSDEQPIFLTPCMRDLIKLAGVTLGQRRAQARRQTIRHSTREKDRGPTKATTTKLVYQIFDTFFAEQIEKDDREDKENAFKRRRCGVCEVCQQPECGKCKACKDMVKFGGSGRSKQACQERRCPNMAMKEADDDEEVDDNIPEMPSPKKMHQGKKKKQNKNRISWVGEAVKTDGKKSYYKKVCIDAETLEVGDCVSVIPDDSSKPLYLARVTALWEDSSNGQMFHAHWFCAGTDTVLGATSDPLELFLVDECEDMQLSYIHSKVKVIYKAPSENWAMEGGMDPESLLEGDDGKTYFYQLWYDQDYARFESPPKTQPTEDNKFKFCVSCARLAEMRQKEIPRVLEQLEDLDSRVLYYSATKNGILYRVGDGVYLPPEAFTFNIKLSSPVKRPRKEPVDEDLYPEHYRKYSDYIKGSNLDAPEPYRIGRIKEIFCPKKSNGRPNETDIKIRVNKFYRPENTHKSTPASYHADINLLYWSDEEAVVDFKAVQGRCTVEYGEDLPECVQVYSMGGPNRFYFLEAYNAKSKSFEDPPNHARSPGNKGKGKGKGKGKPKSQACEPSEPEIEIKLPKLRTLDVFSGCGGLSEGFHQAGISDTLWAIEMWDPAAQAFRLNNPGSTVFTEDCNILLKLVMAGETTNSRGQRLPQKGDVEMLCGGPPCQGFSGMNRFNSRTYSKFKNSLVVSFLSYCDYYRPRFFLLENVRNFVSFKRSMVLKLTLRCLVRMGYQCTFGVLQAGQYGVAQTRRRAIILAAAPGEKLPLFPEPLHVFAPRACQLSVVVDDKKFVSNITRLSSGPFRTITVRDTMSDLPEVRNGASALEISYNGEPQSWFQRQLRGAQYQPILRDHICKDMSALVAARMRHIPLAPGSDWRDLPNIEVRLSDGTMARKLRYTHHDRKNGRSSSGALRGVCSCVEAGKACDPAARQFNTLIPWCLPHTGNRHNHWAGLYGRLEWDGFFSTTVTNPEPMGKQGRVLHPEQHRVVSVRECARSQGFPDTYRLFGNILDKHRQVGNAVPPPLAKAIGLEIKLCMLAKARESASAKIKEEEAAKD
Chain of Phospholipase A2 (P04054 whole entry): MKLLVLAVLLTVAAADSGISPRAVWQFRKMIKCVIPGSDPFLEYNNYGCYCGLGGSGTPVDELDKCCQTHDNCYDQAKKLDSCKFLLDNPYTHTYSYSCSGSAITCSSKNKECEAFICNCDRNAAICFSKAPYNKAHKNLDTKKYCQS
Chain of Induced myeloid leukemia cell differentiation protein Mcl-1 (Q07820 whole entry): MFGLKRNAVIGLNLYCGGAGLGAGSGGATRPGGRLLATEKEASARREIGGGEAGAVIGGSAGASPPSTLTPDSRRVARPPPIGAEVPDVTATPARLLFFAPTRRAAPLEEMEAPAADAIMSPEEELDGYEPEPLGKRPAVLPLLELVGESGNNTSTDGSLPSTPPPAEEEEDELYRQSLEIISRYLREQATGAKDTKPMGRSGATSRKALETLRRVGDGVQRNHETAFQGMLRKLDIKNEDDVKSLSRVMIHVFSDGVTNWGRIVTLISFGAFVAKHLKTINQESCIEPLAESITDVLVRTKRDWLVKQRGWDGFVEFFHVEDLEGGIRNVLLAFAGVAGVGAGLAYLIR
Chain of Genome polyprotein (Q2Q167 whole entry): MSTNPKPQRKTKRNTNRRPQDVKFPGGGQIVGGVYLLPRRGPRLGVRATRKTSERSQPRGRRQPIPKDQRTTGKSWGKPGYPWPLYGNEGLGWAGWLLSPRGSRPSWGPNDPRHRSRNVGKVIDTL
Chain of Paired box protein Pax-8 (Q06710 whole entry): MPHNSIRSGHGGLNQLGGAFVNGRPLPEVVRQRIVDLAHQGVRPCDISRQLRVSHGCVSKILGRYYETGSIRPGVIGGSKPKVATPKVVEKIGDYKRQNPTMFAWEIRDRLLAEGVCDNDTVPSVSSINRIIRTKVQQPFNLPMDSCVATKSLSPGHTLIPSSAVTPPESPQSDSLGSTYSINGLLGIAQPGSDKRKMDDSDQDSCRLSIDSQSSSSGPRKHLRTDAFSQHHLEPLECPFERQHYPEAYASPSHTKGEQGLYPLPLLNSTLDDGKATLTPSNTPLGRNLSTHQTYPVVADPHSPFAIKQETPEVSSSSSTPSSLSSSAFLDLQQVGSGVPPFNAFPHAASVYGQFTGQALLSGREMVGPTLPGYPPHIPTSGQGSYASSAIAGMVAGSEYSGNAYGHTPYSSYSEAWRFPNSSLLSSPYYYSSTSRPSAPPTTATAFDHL

For CCOc1cc(/C=C2\C(=O)N(c3nc(-c4ccc(Br)cc4)cs3)N=C2c2ccccc2)ccc1O, the IC50 (Cysteine protease ATG4B) was 5.08 µM (active), the EC50 (Streptococcus) was 3.67 µM (active) and the IC50 [1] was 4.35 µM (active). The EC50 [2] was 1.78 µM (active), the IC50 (Bcl-2-like protein 10) was 43.8 µM (active) and the IC50 (Genome polyprotein) was > 49.8 µM (not active). The IC50 (Beta-galactosidase) was > 66.6 µM (inactive), the IC50 (Phospholipase A2) was 6.97 µM (active) and the IC50 [3] was 2.54 µM (active).

For c1ccc(Sc2nnc(-c3ccccc3)o2)cc1, the AC50 [4] was 42.9 µM (active), the IC90 [5] was 1 µM (active) and the IC90 [6] was 1 µM (active). The AC50 [7] was > 52 µM (inactive).

In the case of O=C(Nc1ccccc1F)N1CCCCN2[C@H](C1)[C@H](c1ccc(/C=C/c3ccccc3)cc1)[C@@H]2CO, the AC50 [8] is reported as 3.61 µM (active).

For CCOc1cc(CNCCc2ccc(S(N)(=O)=O)cc2)ccc1OCc1ccccc1, the AC50 [9] was > 70 µM (inactive), the AC50 [10] was 25.5 µM (active) and the AC50 [11] was 31.9 µM (active). The AC50 [12] was 3.56 µM (active) and the AC50 [13] was 2.44 µM (active).

For COc1cccc(-c2cc(C(=O)Nc3cnn(Cc4ccccc4C)c3)no2)c1, the IC50 [14] was > 100 µM (active).

With Cc1ccccc1CNC(=O)C1CCCN(c2nnc(C)c3c(C)n(-c4ccccc4)nc23)C1 (stereo unspecified) the AC50 [15] was < 29.5 µM (active), the AC50 [16] was 91.9 µM (active) and the AC50 [17] was 42.8 µM (active). The AC50 [18] was 42.3 µM (active), the AC50 (Paired box protein Pax-8) was 5.95 µM (active) and the AC50 [19] was 4.18 µM (active). The AC50 [20] was 32.4 µM (active), the AC50 [21] was 98.3 µM (active) and the AC50 [22] was 24 µM (active). The AC50 [23] was 61.3 µM (active) and the AC50 [24] was 9.9 µM (active).

For Cc1ccc(-c2ccc(CN(C)C[C@@H]3Oc4cc(C#C[C@@H](C)O)ccc4S(=O)(=O)N([C@@H](C)CO)C[C@@H]3C)cc2)cc1, the AC50 [25] was 1.76 µM (active), the AC50 [26] was 1.95 µM (active) and the AC50 [27] was > 52 µM (inactive). For the same compound, the AC50 [28] was 1.13 µM (active).

With O=C(Nc1nccs1)c1cc(-c2ccccc2)nn1-c1ccccc1 the IC50 [29] was > 37.2 µM (inactive).

— ChEMBL document CHEMBL1201862, “PubChem BioAssay data set” (2004)
